Experimental data reported in article PMC8550792, “Evolution of kinase polypharmacology across HSP90 drug discovery” (Cell Chemical Biology, 2021).
Read-outs that look alike come from different tables or passages of the source. Each block holds one compound with its values, some of them ahead of it.

Columns and labels:
[1] = known interaction (K) listed by CLARITY, cited from earlier work
382 unique human kinases [2] = test: biochemical; format: biochemical; conditions: cutoff of >85% inhibition at 10 μM; luminespib and ganetespib large kinome panel, others 16-kinase panel
382 unique human kinases [3] = molecular target: T1, 382 unique human kinases (Homo sapiens, UniProt P41279); test: biochemical; format: biochemical; conditions: COT1/MAP3K8; read-out: Control Compound IC50*
T1 construct: purchased Reaction Biology (HotSpot contract assay)

382 unique human kinases [4] = molecular target: T2, 382 unique human kinases (Homo sapiens, UniProt Q92918); test: biochemical; format: biochemical; conditions: kinase HPK1/MAP4K1; read-out: Control Compound IC50*
T2 construct: purchased Reaction Biology (HotSpot contract assay)

382 unique human kinases [5] = molecular target: T3, 382 unique human kinases (Homo sapiens, UniProt Q86Y07); test: biochemical; format: biochemical; conditions: kinase VRK2; read-out: Control Compound IC50*
T3 construct: purchased Reaction Biology (HotSpot contract assay)

382 unique human kinases [6] = molecular target: T4, 382 unique human kinases (Homo sapiens, UniProt Q99986); test: biochemical; format: biochemical; conditions: VRK1; read-out: Control Compound IC50*
T4 construct: purchased Reaction Biology (HotSpot contract assay)
T4 sequence (Q99986 1-396): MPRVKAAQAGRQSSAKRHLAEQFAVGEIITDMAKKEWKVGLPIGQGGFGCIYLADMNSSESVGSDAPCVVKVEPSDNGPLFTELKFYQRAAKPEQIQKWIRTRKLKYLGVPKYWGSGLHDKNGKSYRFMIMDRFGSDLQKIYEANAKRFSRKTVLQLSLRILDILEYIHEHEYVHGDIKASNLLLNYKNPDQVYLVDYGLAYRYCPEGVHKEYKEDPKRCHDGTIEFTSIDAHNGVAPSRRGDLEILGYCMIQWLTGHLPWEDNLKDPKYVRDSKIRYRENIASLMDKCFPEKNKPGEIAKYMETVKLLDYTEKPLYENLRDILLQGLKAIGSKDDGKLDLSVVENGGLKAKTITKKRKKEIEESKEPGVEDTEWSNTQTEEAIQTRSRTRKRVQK

382 unique human kinases [7] = molecular target: T5, 382 unique human kinases (Homo sapiens, UniProt Q86Z02); test: biochemical; format: biochemical; conditions: HIPK1; read-out: Control Compound IC50*
T5 construct: purchased Reaction Biology (HotSpot contract assay)

382 unique human kinases [8] = molecular target: T6, 382 unique human kinases (Homo sapiens, UniProt P27361); test: biochemical; format: biochemical; conditions: ERK1; read-out: Control Compound IC50*
T6 construct: purchased Reaction Biology (HotSpot contract assay)

382 unique human kinases [9] = molecular target: T7, 382 unique human kinases (Homo sapiens, UniProt Q96QT4); test: biochemical; format: biochemical; conditions: kinase TRPM7/CHAK1; read-out: Control Compound IC50*
T7 construct: purchased Reaction Biology (HotSpot contract assay)

382 unique human kinases [10] = molecular target: T8, 382 unique human kinases (Homo sapiens, UniProt Q9BQI3); test: biochemical; format: biochemical; conditions: EIF2AK1; read-out: Control Compound IC50*
T8 construct: purchased Reaction Biology (HotSpot contract assay)
T8 sequence (Q9BQI3 whole entry): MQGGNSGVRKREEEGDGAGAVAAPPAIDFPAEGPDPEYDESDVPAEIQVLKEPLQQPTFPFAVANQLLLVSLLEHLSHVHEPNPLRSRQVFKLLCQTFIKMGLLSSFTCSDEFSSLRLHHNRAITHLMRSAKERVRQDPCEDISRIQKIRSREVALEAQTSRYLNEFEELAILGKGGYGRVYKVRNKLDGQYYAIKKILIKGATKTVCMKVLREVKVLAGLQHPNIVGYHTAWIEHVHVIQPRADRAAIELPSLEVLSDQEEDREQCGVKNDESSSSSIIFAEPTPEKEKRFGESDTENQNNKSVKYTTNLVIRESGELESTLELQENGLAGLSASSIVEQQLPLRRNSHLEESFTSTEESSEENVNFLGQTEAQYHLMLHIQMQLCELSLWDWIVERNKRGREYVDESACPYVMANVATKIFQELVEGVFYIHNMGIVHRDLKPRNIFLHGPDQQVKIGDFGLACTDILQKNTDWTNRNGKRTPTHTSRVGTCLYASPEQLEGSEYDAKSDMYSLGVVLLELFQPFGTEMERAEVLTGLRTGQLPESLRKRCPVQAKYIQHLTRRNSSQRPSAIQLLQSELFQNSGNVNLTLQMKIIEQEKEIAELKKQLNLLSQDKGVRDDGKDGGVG

T6 sequence (P27361 whole entry): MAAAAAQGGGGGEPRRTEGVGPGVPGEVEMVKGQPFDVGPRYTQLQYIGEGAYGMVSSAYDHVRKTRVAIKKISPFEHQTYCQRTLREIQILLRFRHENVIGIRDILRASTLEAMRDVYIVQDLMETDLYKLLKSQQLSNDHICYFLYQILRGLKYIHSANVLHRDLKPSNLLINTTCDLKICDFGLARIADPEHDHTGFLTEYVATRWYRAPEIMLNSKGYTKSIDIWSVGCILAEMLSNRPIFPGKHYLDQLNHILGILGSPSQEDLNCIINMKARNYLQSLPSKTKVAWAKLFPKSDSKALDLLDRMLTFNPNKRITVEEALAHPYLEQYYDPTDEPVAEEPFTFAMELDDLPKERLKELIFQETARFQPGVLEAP
T3 sequence (Q86Y07 whole entry): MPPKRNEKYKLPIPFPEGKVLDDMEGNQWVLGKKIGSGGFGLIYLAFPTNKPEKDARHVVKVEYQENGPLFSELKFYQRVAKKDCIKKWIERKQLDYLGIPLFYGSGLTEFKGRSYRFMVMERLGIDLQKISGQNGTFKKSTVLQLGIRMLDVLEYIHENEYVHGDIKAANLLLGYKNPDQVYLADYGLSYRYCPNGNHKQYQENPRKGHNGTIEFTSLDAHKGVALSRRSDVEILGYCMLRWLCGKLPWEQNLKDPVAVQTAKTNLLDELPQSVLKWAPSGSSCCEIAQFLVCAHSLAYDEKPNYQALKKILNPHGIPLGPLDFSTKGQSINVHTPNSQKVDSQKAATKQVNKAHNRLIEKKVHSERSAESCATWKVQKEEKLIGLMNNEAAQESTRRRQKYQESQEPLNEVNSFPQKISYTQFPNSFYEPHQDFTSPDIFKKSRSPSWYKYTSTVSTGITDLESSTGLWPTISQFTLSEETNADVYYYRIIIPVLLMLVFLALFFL
T1 sequence (P41279 whole entry): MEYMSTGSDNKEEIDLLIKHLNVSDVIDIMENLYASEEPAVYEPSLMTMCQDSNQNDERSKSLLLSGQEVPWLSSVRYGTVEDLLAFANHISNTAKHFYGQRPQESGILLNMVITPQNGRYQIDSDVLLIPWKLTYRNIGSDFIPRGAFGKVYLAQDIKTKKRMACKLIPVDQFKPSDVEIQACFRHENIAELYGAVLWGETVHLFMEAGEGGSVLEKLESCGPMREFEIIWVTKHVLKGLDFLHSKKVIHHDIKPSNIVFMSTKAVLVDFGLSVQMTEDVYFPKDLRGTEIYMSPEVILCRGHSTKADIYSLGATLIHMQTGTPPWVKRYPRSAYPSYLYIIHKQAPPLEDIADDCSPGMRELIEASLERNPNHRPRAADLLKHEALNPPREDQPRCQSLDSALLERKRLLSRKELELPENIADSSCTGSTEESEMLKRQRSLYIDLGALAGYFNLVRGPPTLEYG
T7 sequence (Q96QT4 whole entry): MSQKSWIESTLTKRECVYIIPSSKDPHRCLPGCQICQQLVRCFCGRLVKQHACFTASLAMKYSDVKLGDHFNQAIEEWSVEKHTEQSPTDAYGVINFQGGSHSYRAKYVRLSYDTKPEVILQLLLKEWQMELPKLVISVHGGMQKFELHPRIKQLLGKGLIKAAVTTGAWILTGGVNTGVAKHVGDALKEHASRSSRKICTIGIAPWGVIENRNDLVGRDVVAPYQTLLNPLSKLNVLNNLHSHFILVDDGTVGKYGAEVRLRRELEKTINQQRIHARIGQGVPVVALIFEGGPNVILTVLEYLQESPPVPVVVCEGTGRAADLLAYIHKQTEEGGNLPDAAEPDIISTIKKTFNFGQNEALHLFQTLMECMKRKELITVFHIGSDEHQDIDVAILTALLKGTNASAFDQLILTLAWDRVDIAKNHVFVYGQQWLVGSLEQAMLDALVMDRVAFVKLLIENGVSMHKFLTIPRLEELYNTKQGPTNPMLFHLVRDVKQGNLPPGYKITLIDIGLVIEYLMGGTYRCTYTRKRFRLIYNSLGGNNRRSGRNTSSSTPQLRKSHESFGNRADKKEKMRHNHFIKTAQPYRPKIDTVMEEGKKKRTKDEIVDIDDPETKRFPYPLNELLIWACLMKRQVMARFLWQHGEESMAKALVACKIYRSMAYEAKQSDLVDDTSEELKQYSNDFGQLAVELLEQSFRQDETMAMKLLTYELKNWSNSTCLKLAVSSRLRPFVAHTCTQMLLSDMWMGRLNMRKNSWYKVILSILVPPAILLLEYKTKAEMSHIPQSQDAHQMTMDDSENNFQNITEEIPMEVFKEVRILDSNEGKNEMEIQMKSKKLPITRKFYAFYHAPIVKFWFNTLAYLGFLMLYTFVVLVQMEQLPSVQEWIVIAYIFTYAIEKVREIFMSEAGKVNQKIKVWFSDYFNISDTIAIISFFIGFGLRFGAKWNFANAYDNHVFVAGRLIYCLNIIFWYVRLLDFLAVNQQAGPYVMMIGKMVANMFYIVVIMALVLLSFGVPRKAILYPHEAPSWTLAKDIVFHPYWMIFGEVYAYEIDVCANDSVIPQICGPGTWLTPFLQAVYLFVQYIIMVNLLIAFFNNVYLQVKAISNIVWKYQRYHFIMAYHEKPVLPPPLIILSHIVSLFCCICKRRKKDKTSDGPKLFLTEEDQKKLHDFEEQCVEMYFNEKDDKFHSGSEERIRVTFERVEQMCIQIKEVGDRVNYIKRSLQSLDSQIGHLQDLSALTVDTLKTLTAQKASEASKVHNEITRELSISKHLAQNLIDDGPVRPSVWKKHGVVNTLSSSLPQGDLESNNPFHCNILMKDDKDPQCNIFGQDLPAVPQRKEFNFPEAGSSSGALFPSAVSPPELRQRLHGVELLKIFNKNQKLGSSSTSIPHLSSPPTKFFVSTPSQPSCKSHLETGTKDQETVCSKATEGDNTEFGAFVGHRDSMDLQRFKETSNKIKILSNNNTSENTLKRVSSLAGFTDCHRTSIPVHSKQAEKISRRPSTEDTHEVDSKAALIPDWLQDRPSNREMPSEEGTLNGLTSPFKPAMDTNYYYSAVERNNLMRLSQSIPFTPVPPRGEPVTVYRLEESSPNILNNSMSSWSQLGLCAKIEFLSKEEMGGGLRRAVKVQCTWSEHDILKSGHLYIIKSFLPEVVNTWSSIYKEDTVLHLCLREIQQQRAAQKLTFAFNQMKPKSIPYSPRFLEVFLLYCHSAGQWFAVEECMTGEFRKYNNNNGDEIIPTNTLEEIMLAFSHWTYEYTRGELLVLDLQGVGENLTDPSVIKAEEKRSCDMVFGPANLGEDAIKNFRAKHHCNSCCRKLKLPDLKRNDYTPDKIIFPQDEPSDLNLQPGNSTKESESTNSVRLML
T5 sequence (Q86Z02 whole entry): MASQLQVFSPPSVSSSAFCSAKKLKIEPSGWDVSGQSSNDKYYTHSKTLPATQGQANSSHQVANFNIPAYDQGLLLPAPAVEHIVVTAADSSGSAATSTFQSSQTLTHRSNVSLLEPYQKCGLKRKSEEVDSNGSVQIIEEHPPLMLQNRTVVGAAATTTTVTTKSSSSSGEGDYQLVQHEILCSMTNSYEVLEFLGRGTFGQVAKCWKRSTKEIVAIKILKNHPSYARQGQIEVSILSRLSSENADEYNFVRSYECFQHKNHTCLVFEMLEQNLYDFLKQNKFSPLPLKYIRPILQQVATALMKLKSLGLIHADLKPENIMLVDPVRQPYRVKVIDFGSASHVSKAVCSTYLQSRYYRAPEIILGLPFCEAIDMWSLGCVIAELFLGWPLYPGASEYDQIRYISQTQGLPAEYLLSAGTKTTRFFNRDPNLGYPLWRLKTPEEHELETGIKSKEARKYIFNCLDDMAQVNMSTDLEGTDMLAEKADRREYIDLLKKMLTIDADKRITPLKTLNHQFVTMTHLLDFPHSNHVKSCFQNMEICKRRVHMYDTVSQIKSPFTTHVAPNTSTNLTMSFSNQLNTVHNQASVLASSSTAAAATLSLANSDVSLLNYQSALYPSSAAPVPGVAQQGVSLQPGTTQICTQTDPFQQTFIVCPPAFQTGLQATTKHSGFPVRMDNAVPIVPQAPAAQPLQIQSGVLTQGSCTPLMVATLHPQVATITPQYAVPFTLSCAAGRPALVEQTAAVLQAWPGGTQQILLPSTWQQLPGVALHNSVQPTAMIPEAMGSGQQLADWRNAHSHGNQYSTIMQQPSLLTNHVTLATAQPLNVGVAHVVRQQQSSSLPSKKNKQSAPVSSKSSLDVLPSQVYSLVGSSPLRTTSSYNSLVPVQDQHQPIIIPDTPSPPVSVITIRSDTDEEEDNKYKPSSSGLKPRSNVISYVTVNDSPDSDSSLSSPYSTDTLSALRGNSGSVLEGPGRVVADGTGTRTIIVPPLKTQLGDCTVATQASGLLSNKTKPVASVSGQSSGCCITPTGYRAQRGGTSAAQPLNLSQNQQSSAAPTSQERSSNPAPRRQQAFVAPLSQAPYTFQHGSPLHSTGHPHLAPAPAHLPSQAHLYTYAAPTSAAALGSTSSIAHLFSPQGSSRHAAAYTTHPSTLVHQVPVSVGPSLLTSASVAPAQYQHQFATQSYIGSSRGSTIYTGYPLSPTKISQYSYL

number of off-target kinases experimentally identified, In vitro binding (KinomeSCAN) (382 unique human kinases [2]): 0
Compound: COc1c(C)cnc(Cn2cnc3c(Cl)nc(N)nc32)c1C [BIIB021]
pACT(exp) ([1]; Endoplasmin (P14625)): 6.8
pACT(exp) ([1]; Heat shock protein 75 kDa, mitochondrial (Q12931)): 7.1
pACT(exp) ([1]; Heat shock protein HSP 90-alpha (P07900)): 8.1
pACT(exp) ([1]; Heat shock protein HSP 90-beta (P08238)): 7.8

IC50 (382 unique human kinases [3]): 7830 nM
IC50 (382 unique human kinases [4]): 44.3 nM
IC50 (382 unique human kinases [5]): 9050 nM
IC50 (382 unique human kinases [6]): 528 nM
IC50 (382 unique human kinases [7]): 800 nM
Compound: Ro-31-8220

IC50 (382 unique human kinases [8]): 9.81 nM
Compound: O=C(Nc1ccc2[nH]nc(-c3ccncc3)c2c1)[C@@H]1CCN(CC(=O)N2CCN(c3ccc(-c4ncccn4)cc3)CC2)C1 [SCH772984]

Compound: CCCCCCCCCCCCCCCCn1cc[n+](Cc2ccccc2)c1C [NH125]
IC50 (382 unique human kinases [9]): 9950 nM

Compound: Cn1cc(-c2ccc3c(c2)CCN3C(=O)Cc2cccc(C(F)(F)F)c2)c2c(N)ncnc21 [GSK-2606414]
IC50 (382 unique human kinases [10]): 92.1 nM
